Where two headings read alike, the source gives them in different places.

The IC50 is the midpoint of a concentration-inhibition curve.

In the test the target is human TRPA1 channel (Homo sapiens (Human), UniProt O75762). The test is described as follows: hTRPA1 CHO Ca2+ FLIPR Tetra assay, block of cinnamaldehyde induced calcium influx. It counts as cell-based. The following applies: CHO cells expressing TRPA1, Hill coefficient fixed to 1.5. Put shortly:
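IC50 values come from fixed-Hill fits of inhibition of cinnamaldehyde-induced (about EC50 level) calcium influx measured by FLIPR Tetra. Before agonist, TRPA1-expressing CHO cells loaded with calcium indicator were exposed to compound for 10 or 90 min at room temperature in HEPES-buffered HBSS, pH 7.4, with 0.02% BSA.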

The mark [1] stands for this setting: read-out: hTRPA1 IC50 (10 min), compounds incubated 10 minutes at room temperature before cinnamaldehyde agonist.
The mark [2] stands for this setting: read-out: hTRPA1 IC50 (90 min), compounds incubated 90 minutes at room temperature before cinnamaldehyde agonist.

Chain of human TRPA1 channel (O75762 whole entry): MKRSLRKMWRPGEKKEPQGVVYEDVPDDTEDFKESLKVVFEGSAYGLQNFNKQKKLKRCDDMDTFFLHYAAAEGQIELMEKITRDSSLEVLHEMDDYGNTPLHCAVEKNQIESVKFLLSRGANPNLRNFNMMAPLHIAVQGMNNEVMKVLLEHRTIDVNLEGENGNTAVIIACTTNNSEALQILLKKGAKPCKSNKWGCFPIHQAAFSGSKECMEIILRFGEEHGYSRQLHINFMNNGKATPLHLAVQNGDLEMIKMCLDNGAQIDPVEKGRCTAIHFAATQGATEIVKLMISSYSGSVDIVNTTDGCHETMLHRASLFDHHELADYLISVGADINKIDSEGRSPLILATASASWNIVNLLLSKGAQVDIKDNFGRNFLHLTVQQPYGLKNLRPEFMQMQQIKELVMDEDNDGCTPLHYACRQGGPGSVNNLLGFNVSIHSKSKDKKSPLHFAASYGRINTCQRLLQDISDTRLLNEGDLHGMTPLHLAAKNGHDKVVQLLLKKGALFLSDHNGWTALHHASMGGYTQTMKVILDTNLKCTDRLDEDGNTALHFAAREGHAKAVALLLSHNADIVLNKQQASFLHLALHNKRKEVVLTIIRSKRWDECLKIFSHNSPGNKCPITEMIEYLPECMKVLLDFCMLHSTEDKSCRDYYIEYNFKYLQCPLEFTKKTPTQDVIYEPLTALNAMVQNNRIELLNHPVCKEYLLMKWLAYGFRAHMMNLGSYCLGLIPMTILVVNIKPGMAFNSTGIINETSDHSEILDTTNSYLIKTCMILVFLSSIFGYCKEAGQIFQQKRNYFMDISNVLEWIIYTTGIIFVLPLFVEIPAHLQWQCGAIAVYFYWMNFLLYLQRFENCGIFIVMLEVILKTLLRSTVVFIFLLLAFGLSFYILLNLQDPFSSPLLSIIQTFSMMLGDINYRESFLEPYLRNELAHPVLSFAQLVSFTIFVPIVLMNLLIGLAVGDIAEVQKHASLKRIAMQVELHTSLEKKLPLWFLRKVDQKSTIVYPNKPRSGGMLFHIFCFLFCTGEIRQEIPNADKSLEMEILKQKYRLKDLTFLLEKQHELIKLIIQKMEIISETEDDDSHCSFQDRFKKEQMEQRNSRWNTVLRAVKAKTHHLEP

Turning to `Cn1cnc2ncn(Cc3nc([C@@H]4[C@H]5C=C(c6cc(Cl)ccn6)C[C@H]54)no3)c(=O)c21` [Example Compound 159, 1-((3-((1R,5R,6S)-3-(4-chloropyridin-2-yl)bicyclo[3.1.0]hex-2-en-6-yl)-1,2,4-oxadiazol-5-yl)methyl)-7-methyl-1,7-dihydro-6H-purin-6-one], the IC50 under setting [1] is 119 nM and the half-maximal inhibitory concentration (IC50) under setting [2] came to 68 nM.

Consider `Cn1cnc2ncn(Cc3nc([C@H]4[C@@H]5C=C(c6cc(Cl)ccn6)C[C@@H]54)no3)c(=O)c21` [Example Compound 160, 1-((3-((1S,5S,6R)-3-(4-chloropyridin-2-yl)bicyclo[3.1.0]hex-2-en-6-yl)-1,2,4-oxadiazol-5-yl)methyl)-7-methyl-1,7-dihydro-6H-purin-6-one], for which the IC50 under setting [1] is 91.5 nM and the IC50 under setting [2] was found to be 31 nM.

With `O=c1c2cccnc2ncn1Cc1nc([C@H]2[C@@H]3C=C(c4cc(Cl)ccn4)C[C@@H]32)no1` [Example Compound 161, 3-((3-((1S,5S,6R)-3-(4-chloropyridin-2-yl)bicyclo[3.1.0]hex-2-en-6-yl)-1,2,4-oxadiazol-5-yl)methyl)pyrido[2,3-d]pyrimidin-4(3H)-one], the concentration for half-maximal inhibition (IC50) under setting [1] was determined as 315 nM and the half-maximal inhibitory concentration (IC50) under setting [2] came out at 200 nM.

For `O=c1c2cccnc2ncn1Cc1nc([C@@H]2[C@H]3C=C(c4cc(Cl)ccn4)C[C@H]32)no1` [Example Compound 162, 3-((3-((1R,5R,6S)-3-(4-chloropyridin-2-yl)bicyclo[3.1.0]hex-2-en-6-yl)-1,2,4-oxadiazol-5-yl)methyl)pyrido[2,3-d]pyrimidin-4(3H)-one], the half-maximal inhibitory concentration (IC50) under setting [1] was 132 nM and the IC50 under setting [2] turned out to be 88 nM.

As for `Cn1cc(-c2cc(Cl)cc(N3C[C@@H]4[C@H](C3)[C@H]4c3noc(Cn4cnc5ncn(C)c5c4=O)n3)c2)cn1` [Example Compound 163, 1-((3-((1R,5S,6r)-3-(3-chloro-5-(1-methyl-1H-pyrazol-4-yl)phenyl)-3-azabicyclo[3.1.0]hexan-6-yl)-1,2,4-oxadidzol-5-yl)methyl)-7-methyl-1,7-dihydro-6H-purin-6-one], the 50% inhibitory concentration (IC50) was determined as 71.3 nM under setting [1] and 23 nM under setting [2].

As to `Cc1ccnc2ncn(Cc3nc([C@H]4C[C@H](c5ccc(F)cc5)C4)no3)c(=O)c12` [Example Compound 164, 3-((3-((1r,3r)-3-(4-fluorophenyl)cyclobutyl)-1,2,4-oxadiazol-5-yl)methyl)-5-methylpyrido[2,3-d]pyrimidin-4(3H)-one], the IC50 under setting [1] stood at 15.1 nM.

In the case of `Cc1ccnc2ncn(Cc3nc([C@H]4[C@@H]5Oc6c(Cl)cccc6[C@@H]54)no3)c(=O)c12` [Example Compound 165, 3-((3-((1S,1aR,6bS)-3-chloro-1a,6b-dihydro-1H-cyclopropa[b]benzofuran-1-yl)-1,2,4-oxadiazol-5-yl)methyl)-5-methylpyrido[2,3-d]pyrimidin-4(3H)-one], the half-maximal inhibitory concentration (IC50) under setting [1] is 22.2 nM.

In the case of `Cc1cc(C#N)nc2ncn(Cc3nc([C@H]4C[C@](F)(c5ccc(F)cc5)C4)no3)c(=O)c12` [Example Compound 166, 3-((3-((1s,3s)-3-fluoro-3-(4-fluorophenyl)cyclobutyl)-1,2,4-oxadiazol-5-yl)methyl)-5-methyl-4-oxo-3,4-dihydropyrido[2,3-d]pyrimidine-7-carbonitrile], the IC50 under setting [1] was found to be 37.6 nM.

With `O=c1c2cccnc2cnn1Cc1nc([C@H]2[C@@H]3CN(c4cc(Cl)ccn4)C[C@@H]32)no1` [Example Compound 167, 6-((3-((1R,5S,6r)-3-(4-chloropyridin-2-yl)-3-azabicyclo[3.1.0]hexan-6-yl)-1,2,4-oxadiazol-5-yl)methyl)pyrido[2,3-d]pyridazin-5(6H)-one], the half-inhibitory concentration (IC50) by setting is: under setting [1], 51.1 nM; under setting [2], 46 nM.

Consider `Cc1ccnc2ncn(Cc3nc([C@H]4[C@@H]5CN(c6cc(Cl)ccn6)C[C@@H]54)no3)c(=O)c12` [Example Compound 168, 3-((3-((1R,5S,6r)-3-(4-chloropyridin-2-yl)-3-azabicyclo[3.1.0]hexan-6-yl)-1,2,4-oxadiazol-5-yl)methyl)-5-methylpyrido[2,3-d]pyrimidin-4(3H)-one], for which the half-inhibitory concentration (IC50) under setting [1] was 50.8 nM.

(Values after US10711004B2 (Genentech, Inc., priority 2018, dated 2020).)
